EC50, IC50 and melting point data for nine compounds are collected here from US6677450B2, “Topoisomerase inhibitors” (Bristol-Myers Squibb Company, priority 2000, dated 2004).

Each structure is given as a SMILES string.

For data set [1], the target named is T1, purified human topoisomerase I (Homo sapiens, UniProt P11387).
T1 construct: purchased Topogen
T1 sequence (P11387 1-765): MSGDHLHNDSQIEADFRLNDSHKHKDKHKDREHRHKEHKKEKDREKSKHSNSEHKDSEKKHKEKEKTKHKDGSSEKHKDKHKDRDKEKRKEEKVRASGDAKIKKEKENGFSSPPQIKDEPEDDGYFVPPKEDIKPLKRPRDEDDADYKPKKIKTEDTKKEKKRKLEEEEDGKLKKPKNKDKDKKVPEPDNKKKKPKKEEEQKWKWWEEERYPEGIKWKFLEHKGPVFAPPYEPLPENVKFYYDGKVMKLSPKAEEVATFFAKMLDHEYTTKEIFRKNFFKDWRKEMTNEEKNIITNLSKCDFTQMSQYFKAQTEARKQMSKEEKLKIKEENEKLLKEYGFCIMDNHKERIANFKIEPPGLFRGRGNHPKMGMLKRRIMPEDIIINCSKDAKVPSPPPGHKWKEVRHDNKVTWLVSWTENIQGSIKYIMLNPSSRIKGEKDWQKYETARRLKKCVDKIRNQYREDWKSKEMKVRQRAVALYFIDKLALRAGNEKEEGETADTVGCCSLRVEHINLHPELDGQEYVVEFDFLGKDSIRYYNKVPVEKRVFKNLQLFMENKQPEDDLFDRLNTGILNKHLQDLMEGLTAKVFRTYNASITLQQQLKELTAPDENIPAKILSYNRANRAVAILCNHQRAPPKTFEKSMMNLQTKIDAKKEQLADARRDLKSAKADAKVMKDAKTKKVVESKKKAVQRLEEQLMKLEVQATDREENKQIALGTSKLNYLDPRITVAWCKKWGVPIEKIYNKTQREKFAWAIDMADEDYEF
The experiment in a line: Topoisomerase I activity (in vitro): compound-induced, topoisomerase I-mediated single strand breaks in PM2 DNA. Particulars: 30 minutes at 37° C., agarose gel densitometry, read-out: EC50 (median effective concentration for inducing topoisomerase I-mediated single strand breaks in DNA). The format is biochemical. As to the method: Topoisomerase I Activity (In Vitro)
Topoisomerase I activity was measured as described below: The procedure for assaying compound-induced, topoisomerase I-mediated single strand breaks in DNA was essentially that described by Hsiang, et al., (J. Biol Chem. 1985, 260, 14873-14878). Samples dissolved in 100% DMSO as either 10 μM or 10 mg/ml solutions, unless otherwise stated, were diluted in Tris-EDTA buffer. Marine bacteriophage PM2 DNA (Boehringer Mannheim) was also diluted in Tris-EDTA buffer to a concentration of 0.02 μg/μl. Different dilutions of the compound being evaluated were mixed with diluted DNA and this mixture was added to 1000 unit (one unit of enzyme activity is defined as the amount capable of relaxing 100 ng of supercoiled DNA in approximately 30 minutes at 37° C.) aliquots of purified human topoisomerase I (Topogen) in 2× reaction buffer to start the reaction. The compound-DNA-enzyme mixture was incubated for 30 minutes at 37° C. before stopping the reaction with warm stop buffer containing sodium dodecyl sulfate and proteinase K (Sigma). These mixtures were allowed to incubate at 37° C. for another 10 minutes, at which time the mixtures were removed from the waterbath and extracted with a 24:1 mixture of chloroform/isoamyl alcohol. Following centrifugation, aliquots of the aqueous phases were placed in wells of a 0.9% agarose (SeaKem) gel in Tris-borate buffer containing 0.5 μg/ml of ethidium bromide and subjected to electrophoresis for 15 hours to separate the different topological isomers and nicked and broken DNAs. After destaining the gel in water, the ethidium bromide stained DNA reaction products were visualized by exposing the gel to UV irradiation. Negatives of the photographs of the irradiated gels were scanned with a densitometer and areas under the peaks were calculated in order to obtain percent single strand DNA break formation for each sample. A median effective concentration (EC50) was obtained for each compound by interpolation between points of the resulting dose-effect curve which defines the potency of the compound for its effect in inducing topoisomerase I-mediated single strand breaks in DNA.
The topoisomerase I activity for certain compounds of the present invention is shown below in Table I.

The test system of a further data set is murine P388 cell line. The experiment in a line: In vitro cell-based cytotoxicity: proliferation inhibition, XTT tetrazolium assay. Conditions: Mus musculus; P388 cells, 72 h at 37° C., XTT absorbance at 450 nm; read-out: IC50 (drug concentration required to inhibit cell proliferation to 50% of untreated control cells). As to the method: In Vitro Cell-Based Cytotoxicity Activity
The proliferation inhibition activity against murine P388 cell line was measured as follows. Evaluation of a soluble tetrazolium/formazan assay for cell growth and drug sensitivity in culture, using human and other tumor cell lines, was done according to the procedure described in Cancer Res. 1988, 48, 4827-4833. Cells were plated at 4000 cells/well in 96 well microtiter plates and 24 h later drugs were added and serially diluted. The cells were incubated at 37° C. for 72 h, at which time a tetrazolium dye, XTT, containing phenazine methosulfate was added. A dehydrogenase enzyme in live cells reduced the XTT to a form that absorbs light at 450 nm, which could be quantitated spectrophotometrically. The greater the absorbance the greater the number of live cells. The results are expressed as an IC50, which is the drug concentration required to inhibit cell proliferation (i.e., absorbance at 450 nm) to 50% of that of untreated control cells.
(In general: Formazan colour is commonly taken as a measure of viable cells.)

As a reminder, the melting point is the temperature of the solid-liquid transition. On to `O=C1NC(=O)c2c1c1c3ccc(F)cc3n3c1c1c2c2ccc(F)cc2n1C1OC(C3)C(O)C(O)C1O` [Example 10, 2,10-Difluoro-12,13-[1,6-β-D-glucopyranosyl]-6,7,12,13-tetrahydro(5H)indolo-[2,3-a]pyrrolo[3,4-c]carbazole-5,7-dione], for which the melting point is above 300 °C. The EC50 in data set [1] is 0.45 µM. In the data set with murine P388 cell line, the IC50 is 0.13 µM.

For the compound `O=C1NC(=O)c2c1c1c3ccc(F)cc3n3c1c1c2c2ccc(F)cc2n1[C@@H]1O[C@H](CO)[C@@H](O)[C@H](O)[C@@H]13` [Example 24, 2,10-Difluoro-12,13-[1,2-β-D-glucopyranosyl]-6,7,12,13-tetrahydro(5H)-indolo-[2,3-a]pyrrolo[3,4-c]carbazole-5,7-dione], the melting point was above 300 °C. In addition, the EC50 in data set [1] was above 100 µM. In addition, in the data set on murine P388 cell line, the IC50 came out at 1.15 µM.

Regarding `O=C1NC(=O)c2c1c1c3cc(F)c(F)cc3n3c1c1c2c2cc(F)c(F)cc2n1C1OC(C3)C(O)CC1O` [Example 5, 2,3,9,10-Tetrafluoro-12,13-[1,6-(3-deoxy-β-D-glucopyranosyl)]-6,7,12,13-tetrahydro(5H)indolo[2,3-a]pyrrolo[3,4-c]carbazole-5,7-dione], the EC50 in data set [1] was 0.68 µM. For the same compound, the IC50 in the data set on murine P388 cell line was 0.023 µM.

Take `O=C1NC(=O)c2c1c1c3cc(F)c(F)cc3n3c1c1c2c2cc(F)c(F)cc2n1[C@@]1(CO)O[C@@H]3[C@H](O)[C@@H](O)[C@@H]1O` [Example 22, 2,3,9,10-Tetrafluoro-12,13-(1,5-β-D-glucopyranosyl)-6,7,12,13-tetrahydro(5H)indolo[2,3-a]pyrrolo[3,4-c]carbazole-5,7-dione]: the EC50 in data set [1] was determined as 0.32 µM. Further, the IC50 in the data set on murine P388 cell line is 0.086 µM.

Turning to `O=C1NC(=O)c2c1c1c3cc(F)ccc3n3c1c1c2c2cc(F)ccc2n1C1OC(C3)C(O)C(O)C1O` (stereo not drawn) [Example 27], in data set [1], the EC50 stood at 0.036 µM. Besides, the IC50 with murine P388 cell line worked out at 0.0511 µM.

Turning to `O=C1NC(=O)c2c1c1c3cc(F)c(F)cc3n3c1c1c2c2cc(F)c(F)cc2n1C1OC(C3)C(F)C(O)C1O` [Example 8, 2,3,9,10-Tetrafluoro-12,13-[1,6-(4-deoxy-4-fluoro-β-D-glucopyranosyl)]-6,7,12,13-tetrahydro(5H)indolo[2,3-a]pyrrolo[3,4-c]carbazole-5,7-dione], in data set [1], the EC50 amounted to 0.62 µM. The IC50 with murine P388 cell line came to 0.026 µM.

Take `O=C1NC(=O)c2c1c1c3ccc(F)cc3n3c1c1c2c2ccc(F)cc2n1C1OC(C3)C(F)C(O)C1O` [Example 11, 2,10-Difluoro-12,13-[1,6-(4-deoxy-4-fluoro-β-D-glucopyranosyl)]-6,7,12,13-tetrahydro(5H)indolo[2,3-a]pyrrolo[3,4-c]carbazole-5,7-dione]: the melting point is 315 °C (dec.). In addition, the EC50 in data set [1] stood at 3.3 µM. Besides, in the data set with murine P388 cell line, the IC50 amounted to 0.021 µM.

With `O=C1NC(=O)c2c1c1c3cc(F)c(F)cc3n3c1c1c2c2cc(F)c(F)cc2n1C1OC(CC(O)C1O)C3` [Example 4, 2,3,9,10-Tetrafluoro-12,13-[1,6-(4-deoxy-β-D-glucopyranosyl)]-6,7,12,13-tetrahydro(5H)indolo[2,3-a]pyrrolo[3,4-c]carbazole-5,7-dione], the EC50 in data set [1] turned out to be 5.6 µM. Besides, the IC50 in the data set with murine P388 cell line was 0.07 µM.

For `O=C1NC(=O)c2c1c1c3cc(F)c(F)cc3n3c1c1c2c2cc(F)c(F)cc2n1[C@@H]1OC(CF)[C@H]3C(O)C1O` (stereo partly drawn) [Example 16, 2,3,9,10-Tetrafluoro-12,13-[1,4-(6-deoxy-6-fluoro-β-D-galactopyranosyl)]-6,7,12,13-tetrahydro(5H)indolo[2,3-a]pyrrolo[3,4-c]carbazole-5,7-dione], the EC50 in data set [1] amounted to 2.9 µM. Besides, the IC50 in the data set on murine P388 cell line worked out at 3.3 µM.
